Test results as given in US10696623B2, “Phenolic acid derivative compound and use thereof” (DAEBONG LS, LTD, priority 2015, dated 2020).

Test: DPPH radical scavenging activity (antioxidant effect)
Format: biochemical
Details: 0.2 mM DPPH in methanol, 10 min at room temperature, absorbance 517 nm; compared with ascorbic acid (FIG. 1)
Method: The 1,1-diphenyl-2-picrylhydrazyl (DPPH) radical scavenging activities of the phenolic acid derivative compounds prepared in Examples 1-5 were measured to evaluate the antioxidant activities of the compounds against free radicals. Ascorbic acid was used as a positive control.
1,1-Diphenyl-2-picrylhydrazyl (DPPH) radical was purchased from Sigma Chemical Co. (USA) and L-ascorbic acid purchased from Sigma (USA) were used for testing.
100 μl of a 0.2 mM DPPH solution in methanol and 100 μl of each of the compounds at different concentrations were prepared in a 96-well plate. After the reaction was allowed to proceed at room temperature for 10 min, the absorbance of each sample was measured at 517 nm.

In the case of `CCOC(=O)[C@H](Cc1ccccc1)NC(=O)c1cc(O)c(O)c(O)c1` [Example 1, (S)-ethyl-3-phenyl-2-(3,4,5-trihydroxybenzamido)propanoate], the “DPPH radical scavenging activity (antioxidant activity)” value is reported as “high activity compared to the control ascorbic acid”.
